In patent publication US7989458B2, “Pyrimidine derivatives as alk-5 inhibitors” (Novartis AG, priority 2006, dated 2011):

T1: human ALK5 (ALK5 T204D kinase domain) (Homo sapiens, UniProt P36897, T204D)
T1 construct: The kinase domain of human ALK5 (amino acids 200-503); made in house; host or cells: insect cells (baculovirus)
T1 sequence (P36897 200-503 T204D): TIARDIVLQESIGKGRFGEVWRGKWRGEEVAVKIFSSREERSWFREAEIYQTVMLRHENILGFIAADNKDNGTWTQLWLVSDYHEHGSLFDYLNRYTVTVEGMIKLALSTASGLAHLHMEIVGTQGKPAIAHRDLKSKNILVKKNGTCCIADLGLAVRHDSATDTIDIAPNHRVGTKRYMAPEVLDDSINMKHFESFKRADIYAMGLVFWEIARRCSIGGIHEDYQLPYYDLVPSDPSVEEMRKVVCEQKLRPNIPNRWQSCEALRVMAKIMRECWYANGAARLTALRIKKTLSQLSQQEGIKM


target: T1, human ALK5 (ALK5 T204D kinase domain); test: ALK5 kinase activity, [33P] phosphate incorporation into casein; type: biochemical; conditions: casein substrate, 1 μM unlabelled ATP
Method: The kinase activity of ALK5 is assessed by measuring radiolabelled phosphate [33P] incorporation in to the generic substrate, casein. The kinase domain of human ALK5 (amino acids 200-503) is fused to an N-terminal histidine tag. The kinase activity of ALK5 is rendered constitutive via point mutation at amino acid 204 (threonine to aspartate modification, ALK5 T204D) and the kinase construct is engineered to be expressed from a baculovirus expression construct in insect cells. The purified, recombinantly-expressed histidine-tagged ALK5 T204D protein is dissolved at 5.4 mg/ml in 50 mM Tris-HCl pH 8.0, 150 mM NaCl, 5 mM DTT. ALK5 T204D is dissolved to 2.5 μg/ml in assay buffer (Assay buffer: 20 mM Tris-HCl pH 7.4, 10 mM MgCl2, 2 mM MnCl2) on the day of use.
Test compounds and reference compounds are dissolved in assay buffer without DTT containing 5% (v/v) DMSO. Stock solutions of test and reference compounds are diluted in assay buffer with DTT (1.25 mM) containing 4.5% (v/v) DMSO. 10 μl of test or reference compound are added to the appropriate wells of 96 well U-bottomed plate. Total enzyme activity is determined by measuring ALK5 T204D activity in the absence of ALK5 kinase inhibitor reference compounds. Non-specific binding (NSB) is determined by measuring the activity of ALK5 T204D in the presence of ALK5 kinase inhibitor reference compounds. 10 μl of dephosphorylated casein stock solution (dephosphorylated casein is dissolved in ddH2O at 20 mg/ml) is added per well (200 μg/well final assay concentration). 20 μl of ALK5 T204D (2.5 μg/ml solution) is added per well (50 ng/well final assay concentration). The plates are left to incubate at room temperature for 10 minutes.
10 μl of ATP mix is added to the well to initiate the reaction (0.66 nM [^33P]ATP/1 μM unlabelled ATP/well final assay concentration). The ATP mix is prepared as follows, unlabelled ATP (3 mM) is dissolved in ddH2O and pH adjusted to 7.4. The stock concentration of [^33P]ATP is 10 μCi/μl. The appropriate volume of [^33P]ATP is added to unlabelled ATP solution such that the final assay concentration per well is 0.1 μCi. Following addition of the ATP mix, the plates are incubated at room temperature for 50 minutes. The kinase reaction is terminated by the addition of 50 μL Stop Buffer (20 mM Tris-HCl pH 7.4, 10 mM EDTA).
75 μl/well from the reaction plate is transferred to a Multiscreen-IP plate (MultiScreen-IP plates are prepared by added 50 μL of 70% (v/v) ethanol per well and incubated for 5 minutes at room temperature. The ethanol is removed by aspiration via a MultiScreen HTS Vacuum Manifold unit (Millipore, Cat no: MSVMHT500). The plates are washed twice by adding 200 μl/well ddH2O). The MultiScreen-IP plate is incubated at room temperature for 30 minutes to allowing binding of casein to the plate. The MultiScreen-IP plates are washed three times by adding 200 μl/well 100 mM phosphoric acid solution and the gasket is carefully removed from the back of the MultiScreen-IP plate and the plate dried in the oven for 30 minutes. The MultiScreen-IP plate is backsealed, 50 μL of Microscint™20 is added, then the plates are topsealed and radiolabelled casein detected and quantified on a TopCount™ plate-reader using the ^33P scintillation protocol.

Molecule	IC50
c1ccc(-c2nc(NCc3cccc4[nH]ccc34)cc(-c3cccnc3)n2)nc1 [Example 1.1, (1H-Indol-4-ylmethyl)-(6-pyridin-3-yl-2-pyridin-2-yl-pyrimidin-4-yl)-amine]	100 nM
c1ccc(-c2nc(NCCc3cccc4[nH]ccc34)cc(-c3cccnc3)n2)nc1 [Example 1.2, [2-(1H-Indol-4-yl)-ethyl]-(6-pyridin-3-yl-2-pyridin-2-yl-pyrimidin-4-yl)-amine]	30 nM
Cc1cccc(-c2nc(NCCc3c[nH]c4ccccc34)cc(-c3cccnc3)n2)n1 [Example 1.3, [2-(1H-Indol-3-yl)-ethyl]-[2-(6-methyl-pyridin-2-yl)-6-pyridin-3-yl-pyrimidin-4-yl]-amine]	60 nM
Cc1cccc(-c2nc(NCCc3cccc4[nH]ccc34)cc(-c3cccnc3)n2)n1 [Example 1.6, [2-(1H-Indol-4-yl)-ethyl]-[2-(6-methyl-pyridin-2-yl)-6-pyridin-3-yl-pyrimidin-4-yl]-amine]	20 nM
Fc1ccc2[nH]cc(CCNc3cc(-c4cccnc4)nc(-c4ccccn4)n3)c2c1 [Example 1.15, [2-(5-Fluoro-1H-indol-3-yl)-ethyl]-(6-pyridin-3-yl-2-pyridin-2-yl-pyrimidin-4-yl)-amine]	790 nM
c1ccc(-c2nc(NCc3c[nH]c4ccccc34)cc(-c3cccnc3)n2)nc1 [Example 1.23, (1H-Indol-3-ylmethyl)-(6-pyridin-3-yl-2-pyridin-2-yl-pyrimidin-4-yl)-amine]	570 nM
Oc1ccc2[nH]cc(CCNc3cc(-c4cccnc4)nc(-c4ccccn4)n3)c2c1 [Example 1.29, 3-[2-(6-Pyridin-3-yl-2-pyridin-2-yl-pyrimidin-4-ylamino)-ethyl]-1H-indol-5-ol]	370 nM
Fc1cccc2c(CCNc3cc(-c4cccnc4)nc(-c4ccccn4)n3)c[nH]c12 [Example 1.42, [2-(7-Fluoro-1H-indol-3-yl)-ethyl]-(6-pyridin-3-yl-2-pyridin-2-yl-pyrimidin-4-yl)-amine]	310 nM
Cc1cccc(-c2nc(NCCc3cccc(O)c3)cc(-c3cccnc3)n2)n1 [Example 1.48, 3-{2-[2-(6-Methyl-pyridin-2-yl)-6-pyridin-3-yl-pyrimidin-4-ylamino]-ethyl}-phenol]	80 nM
Oc1ccccc1CCNc1cc(-c2cccnc2)nc(-c2ccccn2)n1 [Example 1.62, 2-[2-(6-Pyridin-3-yl-2-pyridin-2-yl-pyrimidin-4-ylamino)-ethyl]-phenol]	150 nM
c1ccc(-c2nc(NCCc3coc4ccccc34)cc(-c3cccnc3)n2)nc1 [Example 1.77, (2-Benzofuran-3-yl-ethyl)-(6-pyridin-3-yl-2-pyridin-2-yl-pyrimidin-4-yl)-amine]	180 nM
Cc1ccc2c(CCNc3cc(-c4cccnc4)nc(-c4cccc(C)n4)n3)c[nH]c2c1 [Example 1.82, [2-(6-Methyl-1H-indol-3-yl)-ethyl]-[2-(6-methyl-pyridin-2-yl)-6-pyridin-3-yl-pyrimidin-4-yl]-amine]	100 nM

Next, values leading:

IC50	Molecule
20 nM	COc1cncc(-c2cc(NCc3cccc4[nH]ccc34)nc(-c3cccc(C)n3)n2)c1 [Example 2.2, (1H-Indol-4-ylmethyl)-[6-(5-methoxy-pyridin-3-yl)-2-(6-methyl-pyridin-2-yl)-pyrimidin-4-yl]-amine]
80 nM	COc1cccc(-c2cncc(-c3cc(NCc4cccc(O)c4)nc(-c4ccccn4)n3)c2)c1 [Example 2.17, 3-({6-[5-(3-Methoxy-phenyl)-pyridin-3-yl]-2-pyridin-2-yl-pyrimidin-4-ylamino}-methyl)-phenol]
910 nM	Cc1cncc(-c2cc(NCCc3c[nH]c4ccccc34)nc(-c3ccccn3)n2)c1 [Example 2.31, [2-(1H-Indol-3-yl)-ethyl]-[6-(5-methyl-pyridin-3-yl)-2-pyridin-2-yl-pyrimidin-4-yl]-amine]
420 nM	CNc1cc(-c2cncc(-c3cccc(OC)c3)c2)nc(-c2cccc(C)n2)n1 [Example 2.69, [6-[5-(3-Methoxy-phenyl)-pyridin-3-yl]-2-(6-methyl-pyridin-2-yl)-pyrimidin-4-yl]-methyl-amine]
10 nM	COc1cccc(-c2cncc(-c3cc(NCc4cccc(O)c4)nc(-c4cccc(C)n4)n3)c2)c1 [Example 2.70, 3-([6-[5-(3-Methoxy-phenyl)-pyridin-3-yl]-2-(6-methyl-pyridin-2-yl)-pyrimidin-4-ylamino]-methyl}-phenol]
40 nM	Cc1cccc(-c2nc(NCc3cccc(O)c3)cc(-c3cncc(-c4ccc(F)cc4)c3)n2)n1 [Example 2.71, 3-{[6-[5-(4-Fluoro-phenyl)-pyridin-3-yl]-2-(6-methyl-pyridin-2-yl)-pyrimidin-4-ylamino]-methyl}-phenol]

tested on: bleomycin-treated rats; test: not given; conditions: cited from earlier work

Molecule	lung fibrosis	number of macrophages and neutrophils in bronchoalveolar lavage
Follistatin: an antagonist of activin signalling (protein, UniProt P19883 30-344, looked up) Follistatin: GNCWLRQAKNGRCQVLYKTELSKEECCSTGRLSTSWTEEDVNDNTLFKWMIFNGGAPNCIPCKETCENVDCGPGKKCRMNKKNKPRCVCAPDCSNITWKGPVCGLDGKTYRNECALLKARCKEQPELEVQYQGRCKKTCRDVFCPGSSTCVVDQTNNAYCVTCNRICPEPASSEQYLCGNDGVTYSSACHLRKATCLLGRSIGLAYEGKCIKAKSCEDIQCTGGKKCLWDFKVGRGRCSLCDELCPDSKSDEPVCASDNATYASECAMKEAACSSGVLLEVKHSGSCNSISEDTEEEEEDEDQDYSFPISSILEW	attenuated lung fibrosis	significantly reduced

tested on: dimethylnitrosamine induced liver fibrosis; test: not given; conditions: rat, during the 3 weeks treatment; cited from earlier work

Molecule	side effects
c1ccc(-c2cc(-c3cn[nH]c3-c3ccccn3)ccn2)cc1 [GW6604]	no obvious side effects

same assay, conditions: rat, given therapeutically, 3 weeks treatment; cited from earlier work

Molecule	inhibition of extracellular matrix deposition	prevention of death rate
c1ccc(-c2cc(-c3cn[nH]c3-c3ccccn3)ccn2)cc1 [GW6604]	60%	40%
